Data on 12 compounds can be found in patent US20260109870A1, “PEPTIDE-BASED NON-CRYSTALLINE MATERIALS AND COMPOSITIONS AND PROCESSES FOR OBTAINING SAME” (Ramot at Tel-Aviv University Ltd., priority 2022, published 2026).

Residues, ends and D or L forms follow the SMILES beside them.

Assay in the first series: not given
As to conditions: in water; marked (literature); cited from earlier work.
`N[C@@H](Cc1ccccc1)C(=O)O` [F, phenylalanine]: the solubility is listed as 29.6 (literature) milligram/milliliter.

A short description of a further series: physchem. Conditions: water.
Experimental: Each amino acid or peptide was weighed. Water was gradually added at room temperature and the solution was vortexed. After each addition of water, the solution was sampled and evaluated under light microscopy; this process was repeated until no visible particles were detected and the concentration was calculated and determined as the solubility limit of the peptide in water.
As for `N[C@@H](Cc1ccc(O)cc1)C(=O)N[C@@H](Cc1ccccc1)C(=O)O` [YF] (H-Tyr-Phe-OH), the solubility was > 1000 mg/mL.
For the compound `N[C@@H](Cc1ccc(O)cc1)C(=O)N[C@@H](Cc1ccc(O)cc1)C(=O)O` [YY] (H-Tyr-Tyr-OH), the solubility is > 1000 mg/mL.

The nature of the next series: Solubility limit in water (gradual water addition, vortex, light microscopy).
Settings: not given
Turning to `N[C@@H](Cc1ccccc1)C(=O)N[C@@H](Cc1ccccc1)C(=O)N[C@@H](Cc1ccccc1)C(=O)O` [FFF, reference compound] (H-Phe-Phe-Phe-OH), the solubility is < 1 mg/mL.
Still for that read-out and setting: the result for `N[C@@H](Cc1ccccc1)C(=O)N[C@@H](Cc1ccccc1)C(=O)N[C@@H](Cc1ccc(O)cc1)C(=O)O` [FFY] (H-Phe-Phe-Tyr-OH) reads > 250 mg/mL; that for `N[C@@H](Cc1ccccc1)C(=O)N[C@@H](Cc1ccc(O)cc1)C(=O)N[C@@H](Cc1ccccc1)C(=O)O` [FYF, reference compound] (H-Phe-Tyr-Phe-OH), < 5 mg/mL; that for `N[C@@H](Cc1ccccc1)C(=O)N[C@@H](Cc1ccc(O)cc1)C(=O)N[C@@H](Cc1ccc(O)cc1)C(=O)O` [FYY] (H-Phe-Tyr-Tyr-OH), > 1000 mg/mL.
With `N[C@@H](Cc1ccccc1)C(=O)N[C@@H](Cc1ccc(O)cc1)C(=O)O` [FY] (H-Phe-Tyr-OH), the solubility was > 1000 mg/mL.
Take `N[C@@H](Cc1ccc(O)cc1)C(=O)N[C@@H](Cc1ccccc1)C(=O)N[C@@H](Cc1ccccc1)C(=O)O` [YFF] (H-Tyr-Phe-Phe-OH): the solubility was > 250 mg/mL.
On the same count and under the same terms, the result for `N[C@@H](Cc1ccc(O)cc1)C(=O)N[C@@H](Cc1ccccc1)C(=O)N[C@@H](Cc1ccc(O)cc1)C(=O)O` [YFY] (H-Tyr-Phe-Tyr-OH) reads > 1000 mg/mL; that for `N[C@@H](Cc1ccc(O)cc1)C(=O)N[C@@H](Cc1ccc(O)cc1)C(=O)N[C@@H](Cc1ccccc1)C(=O)O` [YYF] (H-Tyr-Tyr-Phe-OH), > 1000 mg/mL.
Regarding `N[C@@H](Cc1ccc(O)cc1)C(=O)N[C@@H](Cc1ccc(O)cc1)C(=O)N[C@@H](Cc1ccc(O)cc1)C(=O)O` [YYY, Tyr-Tyr-Tyr] (H-Tyr-Tyr-Tyr-OH), the solubility was > 1000 mg/mL.
